Assay results reported in ChEMBL document CHEMBL4145634, “Discovery of Janus Kinase 2 (JAK2) and Histone Deacetylase (HDAC) Dual Inhibitors as a Novel Strategy for the Combinational Treatment of Leukemia and Invasive Fungal Infections” (J Med Chem, 2018).
Converted amounts (≈) assume the structure as drawn. The source made the active and inactive calls. The calls are words filed in the database; no cut-off is given here.

Experiments:
HEL [1] = assay: Cell cycle arrest in human HEL cells assessed as accumulation at G2/M phase at 5 uM after 48 hrs propidium iodide staining based flow cytometry (reference value: 9.31%); format: functional
[2] = target: T1, Protein deacetylase HDAC6 (Homo sapiens, UniProt Q9UBN7); assay: Inhibition of full length human recombinant HDAC6 expressed in Baculovirus infected Sf9 cells using (Ac-Leu-Gly-Lys(Ac)-AMC as substrate preincubated for 5 mins followed by substrate addition and measured after 30 mins by fluorescence assay
T1 sequence (Q9UBN7 whole entry): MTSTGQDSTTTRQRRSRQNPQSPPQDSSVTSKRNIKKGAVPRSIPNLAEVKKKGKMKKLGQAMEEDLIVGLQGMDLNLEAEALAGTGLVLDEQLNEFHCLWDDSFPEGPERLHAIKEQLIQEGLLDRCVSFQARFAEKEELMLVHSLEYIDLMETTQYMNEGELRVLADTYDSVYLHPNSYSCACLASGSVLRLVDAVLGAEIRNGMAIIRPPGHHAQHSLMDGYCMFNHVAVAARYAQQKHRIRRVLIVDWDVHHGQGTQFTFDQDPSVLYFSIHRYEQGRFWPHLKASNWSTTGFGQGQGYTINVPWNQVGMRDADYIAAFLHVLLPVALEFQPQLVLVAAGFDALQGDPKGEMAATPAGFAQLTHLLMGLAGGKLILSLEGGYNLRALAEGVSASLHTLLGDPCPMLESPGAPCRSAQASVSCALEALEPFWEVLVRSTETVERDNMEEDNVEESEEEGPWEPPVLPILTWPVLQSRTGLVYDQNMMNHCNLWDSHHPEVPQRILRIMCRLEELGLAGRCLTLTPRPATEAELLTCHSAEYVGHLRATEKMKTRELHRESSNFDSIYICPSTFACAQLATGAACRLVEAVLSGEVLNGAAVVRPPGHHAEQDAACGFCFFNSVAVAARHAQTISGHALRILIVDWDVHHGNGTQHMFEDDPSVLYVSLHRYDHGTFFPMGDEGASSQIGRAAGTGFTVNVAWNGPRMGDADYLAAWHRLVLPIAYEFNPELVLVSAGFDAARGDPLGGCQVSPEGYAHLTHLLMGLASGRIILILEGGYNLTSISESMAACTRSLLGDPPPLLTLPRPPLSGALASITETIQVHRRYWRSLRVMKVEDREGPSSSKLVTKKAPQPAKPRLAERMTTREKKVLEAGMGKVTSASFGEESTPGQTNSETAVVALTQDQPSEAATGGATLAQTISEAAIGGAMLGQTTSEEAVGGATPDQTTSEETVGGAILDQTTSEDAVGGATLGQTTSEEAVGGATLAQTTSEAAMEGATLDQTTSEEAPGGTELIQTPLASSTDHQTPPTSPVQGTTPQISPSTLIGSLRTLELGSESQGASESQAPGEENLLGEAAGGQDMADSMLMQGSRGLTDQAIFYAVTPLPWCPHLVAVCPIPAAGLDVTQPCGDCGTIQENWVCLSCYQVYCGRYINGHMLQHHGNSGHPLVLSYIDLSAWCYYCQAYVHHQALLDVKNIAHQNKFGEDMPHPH

[3] = target: Histone deacetylase (Homo sapiens) (UniProt Q13547+O15379+Q9UBN7+Q92769+Q9UQL6+Q8WUI4+Q9BY41+Q96DB2+P56524+Q9UKV0+Q969S8); assay: Inhibition of HDAC in human HEL cells assessed as increased in histone H4 acetylation after 24 hrs by Western blot analysis; format: cell-based
Candida albicans [4] = assay: Antifungal activity against FLC resistant Candida albicans 100 after 48 hrs in presence of fluconazol by checkerboard microdilution method; format: functional; conditions: Candida albicans, 100, 48 h
[5] = target: Tyrosine-protein kinase JAK2 (Homo sapiens, UniProt O60674); assay: Inhibition of JAK2 (unknown origin) using FAM-labeled peptide as substrate preincubated for 10 mins followed by substrate addition and measured after 25 mins in presence of ATP
Candida albicans [6] = assay: microbe, parasite or virus in culture; format: functional; conditions: Candida albicans, 0304103, 48 h
Description: Antifungal activity against FLC resistant Candida albicans 0304103 after 48 hrs in presence of fluconazol by checkerboard microdilution method

Histone deacetylase 1 = Histone deacetylase 1 (Homo sapiens, UniProt Q13547); assay: Inhibition of full length human recombinant HDAC1 expressed in baculovirus expression system using (Ac-Leu-Gly-Lys(Ac)-AMC as substrate preincubated for 5 mins followed by substrate addition and measured after 30 mins by fluorescence assay
Histone deacetylase 8 = target: T2, Histone deacetylase 8 (Homo sapiens, UniProt Q9BY41); assay: Inhibition of full length recombinant C-terminal His tagged human HDAC8 expressed in Baculovirus infected Sf9 cells using Ac-Leu-Gly-Lys(Tfa)-AMC as substrate preincubated for 5 mins followed by substrate addition and measured after 30 mins by fluorescence assay
T2 sequence (Q9BY41 whole entry): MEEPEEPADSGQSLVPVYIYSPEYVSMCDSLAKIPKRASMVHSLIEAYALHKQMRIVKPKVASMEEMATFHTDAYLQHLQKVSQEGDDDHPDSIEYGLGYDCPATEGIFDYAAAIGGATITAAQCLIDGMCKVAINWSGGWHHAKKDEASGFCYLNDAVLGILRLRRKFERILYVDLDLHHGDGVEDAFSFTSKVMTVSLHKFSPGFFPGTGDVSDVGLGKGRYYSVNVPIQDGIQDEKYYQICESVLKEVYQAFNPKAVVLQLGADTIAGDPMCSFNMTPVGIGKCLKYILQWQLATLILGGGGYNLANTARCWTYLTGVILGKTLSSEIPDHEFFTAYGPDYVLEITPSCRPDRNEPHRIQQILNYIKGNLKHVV

[7] = Half life in ICR mouse liver microsomes at 1 uM measured up to 45 mins in presence of NADPH by LC-MS/MS analysis; format: ADME, microsome
HEL [8] = assay: Antitumor activity in human HEL cells xenografted in SCID mouse assessed as mouse survival time at 10 mg/kg, ip qd; format: functional
Mus musculus [9] = assay: Toxicity in BALB/C nude mouse xenografted with human HEL cells assessed as reduction in body weight at 10 mg/kg, ip bid treated for 21 consecutive days; format: organism-based; conditions: in vivo
Candida albicans [10] = assay: microbe, parasite or virus in culture; format: functional; conditions: Candida albicans, 0710922, 48 h
Description: Antifungal activity against FLC resistant Candida albicans 0710922 assessed as fluconazol MIC50 after 48 hrs by checkerboard microdilution method

HEL [11] = assay: Cell cycle arrest in human HEL cells assessed as accumulation at S phase at 5 uM after 48 hrs propidium iodide staining based flow cytometry relative to control; format: functional
HEL [12] = assay: Antitumor activity in human HEL cells xenografted in SCID mouse assessed as increase in mouse survival at 10 mg/kg, ip qd measured up to 40 days; format: functional, organism-based
Candida albicans [13] = assay: Antibiofilm activity against FLC resistant Candida albicans 0304103 assessed as inhibition of biofilm formation pre-incubated with 64 ug/ml FLC for 90 mins followed by further incubation with compound for 24 hrs by XTT reduction assay; format: functional, organism-based
Mus musculus [14] = assay: Toxicity in BALB/C nude mouse xenografted with human HEL cells at 10 mg/kg, ip bid treated for 21 consecutive days; format: organism-based; conditions: in vivo
Candida albicans [15] = assay: Synergistic antifungal activity against FLC resistant Candida albicans 0710922 assessed as FIC index after 48 hrs by checkerboard microdilution method; format: functional
HEL [16] = assay: Cell cycle arrest in human HEL cells assessed as accumulation at G2/M phase at 1 uM after 48 hrs propidium iodide staining based flow cytometry (reference value: 9.32%); format: functional

Chain of Histone deacetylase 1 (Q13547 whole entry): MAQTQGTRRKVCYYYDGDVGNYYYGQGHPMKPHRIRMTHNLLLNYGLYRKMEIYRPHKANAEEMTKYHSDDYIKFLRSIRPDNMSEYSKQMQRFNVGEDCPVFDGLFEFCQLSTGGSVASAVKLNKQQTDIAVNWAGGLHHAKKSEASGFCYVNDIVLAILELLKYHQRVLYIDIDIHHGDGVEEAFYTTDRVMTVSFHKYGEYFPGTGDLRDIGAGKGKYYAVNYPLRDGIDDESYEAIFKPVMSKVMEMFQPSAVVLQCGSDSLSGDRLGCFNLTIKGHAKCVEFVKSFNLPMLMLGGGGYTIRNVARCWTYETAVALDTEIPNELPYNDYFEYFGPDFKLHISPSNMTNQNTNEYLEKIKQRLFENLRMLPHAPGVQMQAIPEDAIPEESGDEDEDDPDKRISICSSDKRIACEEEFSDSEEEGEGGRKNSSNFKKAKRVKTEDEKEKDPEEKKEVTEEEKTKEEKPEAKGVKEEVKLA
Chain of Tyrosine-protein kinase JAK2 (O60674 whole entry): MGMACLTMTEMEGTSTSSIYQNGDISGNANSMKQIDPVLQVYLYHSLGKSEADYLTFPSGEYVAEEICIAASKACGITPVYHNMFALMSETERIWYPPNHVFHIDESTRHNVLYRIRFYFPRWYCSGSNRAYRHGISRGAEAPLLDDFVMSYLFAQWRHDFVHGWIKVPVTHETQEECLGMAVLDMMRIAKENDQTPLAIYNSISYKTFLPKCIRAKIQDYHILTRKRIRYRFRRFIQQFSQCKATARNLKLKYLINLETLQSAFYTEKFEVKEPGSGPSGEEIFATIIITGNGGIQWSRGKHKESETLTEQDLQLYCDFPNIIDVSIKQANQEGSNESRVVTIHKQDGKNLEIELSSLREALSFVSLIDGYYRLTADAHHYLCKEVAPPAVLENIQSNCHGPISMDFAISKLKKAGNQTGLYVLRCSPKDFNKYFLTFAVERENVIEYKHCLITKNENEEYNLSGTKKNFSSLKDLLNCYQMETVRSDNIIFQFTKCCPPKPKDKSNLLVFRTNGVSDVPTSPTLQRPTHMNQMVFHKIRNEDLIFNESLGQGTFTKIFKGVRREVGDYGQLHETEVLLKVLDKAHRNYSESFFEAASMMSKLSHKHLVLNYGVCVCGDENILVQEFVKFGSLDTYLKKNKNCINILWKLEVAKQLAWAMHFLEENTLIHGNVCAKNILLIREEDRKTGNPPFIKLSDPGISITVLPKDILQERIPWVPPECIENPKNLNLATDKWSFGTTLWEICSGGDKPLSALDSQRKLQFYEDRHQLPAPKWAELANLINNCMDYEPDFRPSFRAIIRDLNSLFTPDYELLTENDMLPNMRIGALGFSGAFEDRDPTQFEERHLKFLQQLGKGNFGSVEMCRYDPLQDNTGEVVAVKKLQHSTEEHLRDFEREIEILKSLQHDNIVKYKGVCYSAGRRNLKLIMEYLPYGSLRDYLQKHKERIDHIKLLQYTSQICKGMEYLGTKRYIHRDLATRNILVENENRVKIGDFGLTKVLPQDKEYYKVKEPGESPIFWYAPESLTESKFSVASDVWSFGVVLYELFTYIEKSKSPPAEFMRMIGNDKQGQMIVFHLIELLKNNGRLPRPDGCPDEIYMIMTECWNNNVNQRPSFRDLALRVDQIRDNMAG

Row | SMILES | Activity (HEL [1]) [%] | IC50 [2] [nM] | inhibition [3] | MIC50 (Candida albicans [4]) [µg/mL] | IC50 [5] [nM] | MIC50 (Candida albicans [6]) [µg/mL] | IC50 (Histone deacetylase 1) [nM] | IC50 (Histone deacetylase 8) [nM] | half-life at 1 µM [7] [min] | Survival (HEL [8]) [days] | Activity (Mus musculus [9]) | MIC50 (Candida albicans [10]) [µg/mL] | Activity (HEL [11]) [%] | Activity (HEL [12]) | inhibition (Candida albicans [13]) | Activity (Mus musculus [14]) | fractional inhibitory concentration index (FICI) (Candida albicans [15]) | Activity (HEL [16]) [%]
1 | CS(=O)(=O)Nc1ccc(-c2ccnc(Nc3ccc(N4CCC(C(=O)NCCCCCCCC(=O)NO)CC4)cc3)n2)cc1 | 8.12 | 74 | Dose-dependent effect | 8 | 2 | 8 (≈ 12.8 µM) | 18 | 572 | 15.7 | 27 | Non-Toxic | 0.25 (≈ 0.401 µM) | 34.37 | Active | Dose-dependent effect | Non-Toxic | 0.26 | 8.23
2 | CS(=O)(=O)Nc1ccc(-c2ccnc(Nc3ccc(N4CCC(C(=O)Nc5ccc(/C=C/C(=O)NO)cc5)CC4)cc3)n2)cc1 | 28.14 | 46 | Dose-dependent effect | 4 | 8 | 4 (≈ 6.37 µM) | 250 | 6070 | 19.4 | – | Non-Toxic | 1 (≈ 1.59 µM) | – | Active | Dose-dependent effect | Non-Toxic | 0.14 | 11.75
3 | O=C(NO)c1ccc(-c2ccnc(Nc3ccc(N4CCOCC4)cc3)n2)cc1 | – | 419 | Dose-dependent effect | 8 | 85 | 4 (≈ 10.2 µM) | 160 | 609 | 16.5 | 27 | Non-Toxic | 1 (≈ 2.55 µM) | 18.9 | Active | Dose-dependent effect | Non-Toxic | 0.27 | –
